Test results as given in the NIST ThermoML archive (doi:10.1016/j.fluid.2017.01.019).

Experiment: xn = mol fraction of the nth substance listed
Conditions: 100 kPa, Liquid; for mass density: Vibrating tube method; for viscosity: Falling or rolling sphere viscometry; for speed of sound: Frequency=3 MHz, Sing-around technique in a fixed-path interferometer

CCOS(=O)(=O)[O-].CCn1cc[n+](C)c1 [1-ethyl-3-methylimidazolium ethyl sulfate] + CCCCO
Conditions | mass density [kg/m3] | speed of sound [m/s] | viscosity [mPa·s]
289.15 K, x1 = 0.1071 | 894.433 | – | –
289.15 K, x1 = 0.1982 | 955.118 | – | –
289.15 K, x1 = 0.3069 | 1015.6 | – | –
289.15 K, x1 = 0.3985 | 1058.77 | – | –
289.15 K, x1 = 0.5048 | 1101.82 | – | –
289.15 K, x1 = 0.603 | 1136.02 | – | –
289.15 K, x1 = 0.7158 | 1169.99 | – | –
289.15 K, x1 = 0.7951 | 1191.1 | – | –
289.15 K, x1 = 0.9185 | 1219.88 | – | –
289.15 K, x1 = 1 | 1236.33 | – | –
298.15 K, x1 = 0.1071 | – | 1289.1 | 4.24
298.15 K, x1 = 0.1982 | – | 1334.4 | 7.8
298.15 K, x1 = 0.3069 | – | 1385.6 | 10.83
298.15 K, x1 = 0.3985 | – | 1430.2 | 14.09
298.15 K, x1 = 0.5048 | – | 1480.4 | 19.44
298.15 K, x1 = 0.603 | – | 1523.6 | 26.62
298.15 K, x1 = 0.7158 | – | 1571.7 | 38.4
298.15 K, x1 = 0.7951 | – | 1603.7 | 49.51
298.15 K, x1 = 0.9185 | – | 1649.7 | 72.34
298.15 K, x1 = 1 | – | 1682.3 | 96.21
303.15 K, x1 = 0.1071 | 890.751 | 1273.7 | 3.75
303.15 K, x1 = 0.1982 | 951.498 | 1319.9 | 6.51
303.15 K, x1 = 0.3069 | 1012.01 | 1372 | 9.15
303.15 K, x1 = 0.3985 | 1055.33 | 1417 | 11.98
303.15 K, x1 = 0.5048 | 1098.4 | 1467.3 | 16.51
303.15 K, x1 = 0.603 | 1132.65 | 1510.8 | 22.37
303.15 K, x1 = 0.7158 | 1166.67 | 1559.1 | 31.74
303.15 K, x1 = 0.7951 | 1187.78 | 1591.2 | 40.39
303.15 K, x1 = 0.9185 | 1216.56 | 1637.3 | 57.89
303.15 K, x1 = 1 | 1232.93 | 1670 | 75.89
308.15 K, x1 = 0.1071 | 887.005 | 1258.4 | 3.34
308.15 K, x1 = 0.1982 | 947.88 | 1305.4 | 5.54
308.15 K, x1 = 0.3069 | 1008.14 | 1358.2 | 7.92
308.15 K, x1 = 0.3985 | 1051.76 | 1403.8 | 10.46
308.15 K, x1 = 0.5048 | 1094.94 | 1454.7 | 14.4
308.15 K, x1 = 0.603 | 1129.23 | 1498.4 | 19.31
308.15 K, x1 = 0.7158 | 1163.39 | 1546.8 | 26.88
308.15 K, x1 = 0.7951 | 1184.46 | 1578.9 | 33.7
308.15 K, x1 = 0.9185 | 1213.19 | 1625.2 | 47.2
308.15 K, x1 = 1 | 1229.57 | 1657.9 | 60.73
313.15 K, x1 = 0.1071 | 883.165 | 1243.2 | 2.99
313.15 K, x1 = 0.1982 | 944.157 | 1290.7 | 4.82
313.15 K, x1 = 0.3069 | 1004.86 | 1344.1 | 6.95
313.15 K, x1 = 0.3985 | 1048.25 | 1390.4 | 9.21
313.15 K, x1 = 0.5048 | 1091.49 | 1441.8 | 12.62
313.15 K, x1 = 0.603 | 1125.39 | 1485.8 | 16.74
313.15 K, x1 = 0.7158 | 1160.05 | 1534.5 | 22.92
313.15 K, x1 = 0.7951 | 1181.13 | 1566.7 | 28.36
313.15 K, x1 = 0.9185 | 1209.91 | 1613.1 | 38.93
313.15 K, x1 = 1 | 1226.21 | 1645.9 | 49.38
318.15 K, x1 = 0.1071 | 879.331 | 1228 | 2.69
318.15 K, x1 = 0.1982 | 940.543 | 1276.5 | 4.25
318.15 K, x1 = 0.3069 | 1001.31 | 1330.5 | 6.16
318.15 K, x1 = 0.3985 | 1044.72 | 1377.6 | 8.16
318.15 K, x1 = 0.5048 | 1088.01 | 1429.8 | 11.12
318.15 K, x1 = 0.603 | 1122.45 | 1473.7 | 14.62
318.15 K, x1 = 0.7158 | 1156.71 | 1522.6 | 19.75
318.15 K, x1 = 0.7951 | 1177.81 | 1554.8 | 24.19
318.15 K, x1 = 0.9185 | 1206.65 | 1601.2 | 32.66
318.15 K, x1 = 1 | 1222.87 | 1634.1 | 40.93
323.15 K, x1 = 0.1071 | 875.482 | 1213 | 2.43
323.15 K, x1 = 0.1982 | 936.794 | 1262.2 | 3.69
323.15 K, x1 = 0.3069 | 997.633 | 1317 | 5.43
323.15 K, x1 = 0.3985 | 1041.07 | 1364.8 | 7.28
323.15 K, x1 = 0.5048 | 1084.47 | 1417.4 | 9.93
323.15 K, x1 = 0.603 | 1118.96 | 1461.5 | 12.97
323.15 K, x1 = 0.7158 | 1153.24 | 1510.6 | 17.27
323.15 K, x1 = 0.7951 | 1174.37 | 1543 | 20.87
323.15 K, x1 = 0.9185 | 1203.18 | 1589.4 | 27.56
323.15 K, x1 = 1 | 1219.54 | 1622.3 | 33.82
